Results published in patent publication US9969755B2, “Photodynamic therapy photosensitizers” (The Royal Institution for the Advancement of …, priority 2016, dated 2018).

Legend:
Assay type in all cases: physicochemical
[1] = Activation of compounds 7 and 8 with dicumyl peroxide (cumyloxyl radicals); settings: 9 with respect to 7; reaction with cumyloxyl radicals/ROS, 1 equivalent sacrificial PMHC
Experimental: Compounds 7 and 8 were oxidized/activated in air equilibrated acetonitrile solution upon photolysis of a 100 μM dicumyl peroxide. Irradiation was performed within a fluorimeter to generate ROS upon exciting with ultraviolet light at 263 nm (2.4 mW/cm^2). The fluorescence intensity at the emission maxima of the probes was monitored over time.
Activation of the dormant photosensitizer 7 or 8 (deactivation of PeT) following their reaction with ROS was subsequently tested in the presence of alkoxyl radicals. These ROS were generated at a constant rate upon photolysis at 263 nm of an air equilibrated 100 μM dicumyl peroxide solution in acetonitrile. We followed over time the increase in fluorescence intensity (drop in PeT) to monitor the extent of activation, see FIG. 16. Activation was complete once the intensity reached a plateau.^28,45 At this point, the trap segment in 7 and 8 reacted to completion with alkoxyl radicals to generate 9 and 10, respectively. […] Deactivation of PeT in the singlet excited state in turn manifested in the ca. 7-fold and 2-fold emission enhancements recorded for 9 vs 7, and 10 vs 8, respectively (FIG. 16).

[2] = Autocatalytic activation of compound 7 (monitoring ^1O2 phosphorescence)
Experimental: ^1O2 phosphorescence (1270 nm) was monitored with a Hamamatsu NIR detector after different irradiation periods with a Nd:YAG laser operating at 10 Hz. The energy of each laser pulse was 10 mJ exciting at 532 nm. Using the same procedure as described above (Determination of ^1O2 Quantum Yield), a total of 3 laser shots were applied to acquire a trace at different time intervals following the continuous irradiation by a second Nd:YAG laser setup. Laser excitation was performed at 10 Hz, providing one laser output for every discharge of the flashlamp. The energy of each laser pulse was 10 mJ. To prepare the samples with PMHC, we first added to the solvent (acetonitrile, air equilibrated) the desired amount of PMHC from a stock solution. Then, compound 7 was dissolved until reaching Abs=0.3 ([7]=5.8 μM). For the samples containing compound 4, we first dissolved 4 in a stock solution of acetonitrile containing 0.12 μM of PMHC and then the desired volume of this solution was added to the solution containing 7 and same concentration of the antioxidant (0.12 μM of PMHC).

[3] = Autocatalytic activation of compound 7 (monitoring fluorescence)
Experimental: The increase in the fluorescence emission due to autocatalytic activation of compound 7 was followed by continuous irradiation at 532 nm and 1.6 mW/cm^2 in air equilibrated acetonitrile using a PTI QuantaMaster spectrofluorimeter. The emission at 557 nm was measured as a function of the irradiation time. Samples were prepared as described above (see Autocatalytic Activation of Compound 7 (Monitoring ^1O2 Phosphorescence)).

CC1=C(Br)C(C)=[N+]2C1=C(CC1(C)CCc3c(C)c(O)c(C)c(C)c3O1)c1c(C)c(Br)c(C)n1[B-]2(F)F (stereo not shown) [Compound 7, 8-((6-Hydroxy-2,5,7,8-tetramethylchroman-2-yl)-methyl)-2,6-dibromo-1,3,5,7-tetramethyl]
enhancement in φΔ^D (^1O2 production) on activation [1]: ~40 fold | φΔ ([2]; 250 μM PMHC added, before prolonged irradiation): undetectable | ^1O2 phosphorescence lifetime ([2]; 250 μM PMHC added, within the instrument response): ~3 μs | increase in φΔ after prolonged irradiation ([2]; 250 μM PMHC, 8 hs, ˜300,000 laser shots, 10 mJ/pulse): ca. 25 fold | fraction of photoexcited 7 undergoing activation through reaction with its own singlet oxygen ([2]; assuming geminate quenching 100% effective, 5-3% chemical): smaller than 2×10^−4 | fraction of photoexcited 7 effectively sensitizing singlet oxygen ([2]; assuming keT˜25×kISC and k′eT˜10×kq[O2]): < 4×10^−3 | increase in φΔ over irradiation time ([2]; direct 532 nm laser excitation, air equilibrated acetonitrile, no PMHC): ca. 6 fold | fraction of 7 pre-oxidized during sample preparation [3]: less than 5% | Fluorescence intensity enhancements ([3]; 0.12 μM sacrificial PMHC, continuous irradiation at 532 nm): ~30 fold | k, apparent second order rate constant for autocatalytic activation ([3]; fit to equation 9, different conditions): ~133 M⁻¹ s⁻¹
